Several values for one entry are separate records, joined by “and”; a condition that tells them apart may be missing. Identical values can stand only once. Inconclusive results and toxic doses are left out.
System: P388 leukemia ip, CD2F1 mice, survival T/C
Test: NCI In Vivo Anticancer Drug Screen. Data for tumor model P388 Leukemia (intraperitoneal) in CD2F1 (CDF1) mice
Conditions: endpoint: median survival time, higher = longer survival
Method in brief: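 Mice carrying the transplanted tumor received test compound or vehicle. Survival was recorded in each group, and the value is the treated-group measurement divided by that of the vehicle-treated control group.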

[1] = dose: 50.0 mg/kg/injection, schedule: Q01DX005 (ip), vehicle: Klucel (hydroxypropylcellulose) (HPC)
[2] = dose: 100.0 mg/kg/injection, schedule: Q01DX005 (ip), vehicle: Klucel (hydroxypropylcellulose) (HPC)
[3] = dose: 50.0 mg/kg/injection, schedule: Q01DX009 (ip), vehicle: saline
[4] = dose: 100.0 mg/kg/injection, schedule: Q01DX009 (ip), vehicle: saline
[5] = dose: 200.0 mg/kg/injection, schedule: Q01DX009 (ip), vehicle: saline
[6] = dose: 60.0 mg/kg/injection, schedule: Q01DX005 (ip), vehicle: saline with Tween-80
[7] = dose: 120.0 mg/kg/injection, schedule: Q01DX005 (ip), vehicle: saline with Tween-80
[8] = dose: 240.0 mg/kg/injection, schedule: Q01DX005 (ip), vehicle: saline with Tween-80

With O=S1Nc2ccccc2[C@H]2[C@@H]1[C@H]1O[C@@H]2c2ccccc21 (stereo partly specified) as the molecule, how does the T/C [1] read?
The T/C was 112 % of control.

And the T/C [2]?
Its T/C is 105 % of control.

What about the T/C (dose: 240.0 mg/kg/injection, schedule: Q01DX005 (ip), vehicle: Klucel (hydroxypropylcellulose) (HPC)) of the same molecule?
The T/C was 101 % of control.

For CCOC(=O)C(=O)N1c2c(nc(N)[nH]c2=O)NCC1CNc1ccc(C(=O)NC(CCC(=O)O)C(=O)O)cc1 (stereo unspecified) (tested in a mixture with another compound), which T/C (dose: 50.0 mg/kg/injection, schedule: Q01DX001 (ip), vehicle: saline) is on record?
Its T/C is 111 % of control.

What about the T/C (dose: 100.0 mg/kg/injection, schedule: Q01DX001 (ip), vehicle: saline) of the same molecule?
The T/C was 101 % of control.

What about the T/C (dose: 200.0 mg/kg/injection, schedule: Q01DX001 (ip), vehicle: saline) of the same molecule?
Its T/C is 101 % of control.

How did the T/C (dose: 178.0 mg/kg/injection, schedule: Q01DX001 (ip), vehicle: saline) turn out when C=C1C(=O)CCC1C(=O)O (stereo unspecified) was run?
Its T/C is 100 % of control.

And the T/C (dose: 266.0 mg/kg/injection, schedule: Q01DX001 (ip), vehicle: saline)?
Its T/C is 109 % of control.

And the T/C (dose: 400.0 mg/kg/injection, schedule: Q01DX001 (ip), vehicle: saline)?
Its T/C is 114 % of control.

And the T/C (dose: 600.0 mg/kg/injection, schedule: Q01DX001 (ip), vehicle: saline)?
The T/C was 118 % of control.

What about the T/C (dose: 900.0 mg/kg/injection, schedule: Q01DX001 (ip), vehicle: saline) of the same molecule?
The T/C was 112 % of control.

CC(=O)O[C@@H]1C[C@H](O)[C@@]23COC(O)[C@H]1[C@@H]2C[C@@H](O)[C@@]1(C)C2C(=O)C[C@@H](c4ccoc4)[C@]2(C)CC[C@@H]13 (stereo partly specified) was tested. Which T/C (dose: 2.4 mg/kg/injection, schedule: Q01DX009 (ip), vehicle: Klucel (hydroxypropylcellulose) (HPC)) did it give?
Its T/C is 99 % of control.

What about the T/C (dose: 18.75 micrograms/kg/injection, schedule: Q01DX009 (ip), vehicle: Klucel (hydroxypropylcellulose) (HPC)) of the same molecule?
The T/C was 107 % of control.

What about the T/C (dose: 37.5 micrograms/kg/injection, schedule: Q01DX009 (ip), vehicle: Klucel (hydroxypropylcellulose) (HPC)) of the same molecule?
Its T/C is 117 % of control.

And the T/C (dose: 75.0 micrograms/kg/injection, schedule: Q01DX009 (ip), vehicle: Klucel (hydroxypropylcellulose) (HPC))?
Its T/C is 96 % of control.

What about the T/C (dose: 150.0 micrograms/kg/injection, schedule: Q01DX009 (ip), vehicle: Klucel (hydroxypropylcellulose) (HPC)) of the same molecule?
The T/C was 101 % of control.

With O=C(O)c1c[nH]c2cc(F)ccc2c1=O as the molecule, how does the T/C [3] read?
The T/C was 103 % of control.

What about the T/C [4] of the same molecule?
The T/C was 95 % of control.

And the T/C [5]?
The T/C was 96 % of control.

For COc1ccc(C2c3cc4c(cc3OC(C)(N3CCCC3)C2C)OCO4)c(OC)c1OC (stereo unspecified), which T/C [6] is on record?
Its T/C is 100 % of control.

And the T/C [7]?
The T/C was 95 % of control.

What about the T/C [8] of the same molecule?
The T/C was 96 % of control.

COc1cc2c(c(OC)c1OC)-c1ccc(SC)c(=O)cc1C(NC(=O)COP(=O)(O)OCC(=O)NC1CCc3cc(OC)c(OC)c(OC)c3-c3ccc(SC)c(=O)cc31)CC2 (stereo unspecified) was tested. Which T/C (dose: 0.78 mg/kg/injection, schedule: Q01DX009 (ip), vehicle: water) did it give?
Its T/C is 121 % of control.

What about the T/C (dose: 1.56 mg/kg/injection, schedule: Q01DX009 (ip), vehicle: water) of the same molecule?
Its T/C is 114 % of control.

And the T/C (dose: 6.25 mg/kg/injection, schedule: Q01DX009 (ip), vehicle: water)?
The T/C was 150 % of control.

How did the T/C [1] turn out when O=C(O)C[CH2][Sn](=[O])[CH2]CC(=O)O was run?
The T/C was 101 % of control.

What about the T/C [2] of the same molecule?
The T/C was 101 % of control.

What about the T/C (dose: 200.0 mg/kg/injection, schedule: Q01DX005 (ip), vehicle: Klucel (hydroxypropylcellulose) (HPC)) of the same molecule?
Its T/C is 102 % of control.

Which results are given for CCOC(=O)C1(C(=O)OCC)COC(=O)C1?
T/C (dose: 16.0 mg/kg/injection, schedule: Q01DX009 (ip), vehicle: saline with Tween-80): 97 % of control; T/C (dose: 32.0 mg/kg/injection, schedule: Q01DX009 (ip), vehicle: saline with Tween-80): 109 % of control; T/C (dose: 64.0 mg/kg/injection, schedule: Q01DX009 (ip), vehicle: saline with Tween-80): 114 % of control; T/C (dose: 128.0 mg/kg/injection, schedule: Q01DX009 (ip), vehicle: saline with Tween-80): 97 % of control; T/C (dose: 256.0 mg/kg/injection, schedule: Q01DX009 (ip), vehicle: saline with Tween-80): 106 % of control

How did the T/C (dose: 100.0 mg/kg/injection, schedule: Q04DX003 (ip), vehicle: Klucel (hydroxypropylcellulose) (HPC)) turn out when O=S1(=O)CCOc2ccccc2N1 was run?
The T/C was 96 % of control.

And the T/C (dose: 200.0 mg/kg/injection, schedule: Q04DX003 (ip), vehicle: Klucel (hydroxypropylcellulose) (HPC))?
The T/C was 96 % of control.

And the T/C (dose: 400.0 mg/kg/injection, schedule: Q04DX003 (ip), vehicle: Klucel (hydroxypropylcellulose) (HPC))?
The T/C was 90 % of control.

O=C1C[CH]([Ge](=[O])[O][Ge](=[O])[CH]2CC(=O)NC(=O)N2)NC(=O)N1 (stereo unspecified) was tested. Which T/C (dose: 15.0 mg/kg/injection, schedule: Q01DX005 (ip), vehicle: water) did it give?
Its T/C is 97 % of control.

And the T/C (dose: 30.0 mg/kg/injection, schedule: Q01DX005 (ip), vehicle: water)?
Its T/C is 99 % of control.

And the T/C (dose: 60.0 mg/kg/injection, schedule: Q01DX005 (ip), vehicle: water)?
Its T/C is 111 % of control.

What about the T/C (dose: 120.0 mg/kg/injection, schedule: Q01DX005 (ip), vehicle: water) of the same molecule?
The T/C was 103 % of control and 118 % of control.

And the T/C (dose: 240.0 mg/kg/injection, schedule: Q01DX005 (ip), vehicle: water)?
The T/C was 95 % of control.

How did the T/C (dose: 100.0 mg/kg/injection, schedule: Q01DX001 (ip), vehicle: saline with Tween-80) turn out when O=C1Cc2[nH]ccc2C(=O)O1 was run?
The T/C was 99 % of control.

And the T/C (dose: 200.0 mg/kg/injection, schedule: Q01DX001 (ip), vehicle: saline with Tween-80)?
Its T/C is 90 % of control.

What about the T/C (dose: 400.0 mg/kg/injection, schedule: Q01DX001 (ip), vehicle: saline with Tween-80) of the same molecule?
The T/C was 107 % of control.

With CC(=O)C1C(=O)C=C(C)OC1=O.CC(=O)C1C(=O)C=C(C)OC1=O.[Hg] (stereo unspecified) as the molecule, how does the T/C (dose: 1.56 mg/kg/injection, schedule: Q01DX009 (ip), vehicle: Klucel (hydroxypropylcellulose) (HPC)) read?
The T/C was 88 % of control.

And the T/C (dose: 3.12 mg/kg/injection, schedule: Q01DX009 (ip), vehicle: Klucel (hydroxypropylcellulose) (HPC))?
Its T/C is 101 % of control.

What about the T/C (dose: 6.25 mg/kg/injection, schedule: Q01DX009 (ip), vehicle: Klucel (hydroxypropylcellulose) (HPC)) of the same molecule?
The T/C was 91 % of control and 93 % of control.

How did the T/C (dose: 12.5 mg/kg/injection, schedule: Q01DX009 (ip), vehicle: saline) turn out when COC(=O)CS(=O)(=O)CCS(=O)(=O)CC(=O)OC was run?
The T/C was 99 % of control and 100 % of control.

And the T/C (dose: 25.0 mg/kg/injection, schedule: Q01DX009 (ip), vehicle: saline)?
The T/C was 94 % of control and 98 % of control.

And the T/C [3]?
The T/C was 99 % of control and 124 % of control and 98 % of control.

What about the T/C [4] of the same molecule?
Its T/C is 103 % of control and 104 % of control and 113 % of control.

What about the T/C [5] of the same molecule?
Its T/C is 114 % of control.

With CN(c1ccccc1)c1ccc([N+](=O)[O-])c2no[n+]([O-])c12 as the molecule, how does the T/C (dose: 7.5 mg/kg/injection, schedule: Q01DX009 (ip), vehicle: suspension in saline) read?
Its T/C is 92 % of control and 97 % of control.

What about the T/C (dose: 15.0 mg/kg/injection, schedule: Q01DX009 (ip), vehicle: suspension in saline) of the same molecule?
The T/C was 92 % of control and 96 % of control.

And the T/C (dose: 30.0 mg/kg/injection, schedule: Q01DX009 (ip), vehicle: suspension in saline)?
The T/C was 103 % of control and 90 % of control.

And the T/C (dose: 60.0 mg/kg/injection, schedule: Q01DX009 (ip), vehicle: suspension in saline)?
Its T/C is 110 % of control and 115 % of control.

With O=c1ccc2cc3ccoc3c(OCCCCCCCCCCCCOc3c4occc4cc4ccc(=O)oc34)c2o1 as the molecule, how does the T/C (dose: 6.25 mg/kg/injection, schedule: Q01DX005 (ip), vehicle: saline with Tween-80) read?
Its T/C is 100 % of control.

And the T/C (dose: 12.5 mg/kg/injection, schedule: Q01DX005 (ip), vehicle: saline with Tween-80)?
Its T/C is 100 % of control.

And the T/C (dose: 25.0 mg/kg/injection, schedule: Q01DX005 (ip), vehicle: saline with Tween-80)?
Its T/C is 88 % of control.

Which results are given for CCCOCC(=O)OC?
T/C [3]: 98 % of control; T/C [4]: 99 % of control; T/C [5]: 100 % of control

What does the source list for C[CH2][Sn]([F])([F])[CH2]C?
T/C (dose: 6.25 mg/kg/injection, schedule: Q04DX003 (ip), vehicle: saline): 107 % of control; T/C (dose: 12.5 mg/kg/injection, schedule: Q04DX003 (ip), vehicle: saline): 108 % of control; T/C (dose: 25.0 mg/kg/injection, schedule: Q04DX003 (ip), vehicle: saline): 116 % of control

What does the source list for Cn1c(C(Cl)Cl)nc2ccccc2c1=O?
T/C (dose: 12.5 mg/kg/injection, schedule: Q04DX003 (ip), vehicle: Klucel (hydroxypropylcellulose) (HPC)): 95 % of control; T/C (dose: 25.0 mg/kg/injection, schedule: Q04DX003 (ip), vehicle: Klucel (hydroxypropylcellulose) (HPC)): 104 % of control; T/C (dose: 50.0 mg/kg/injection, schedule: Q04DX003 (ip), vehicle: Klucel (hydroxypropylcellulose) (HPC)): 104 % of control

With NN=C(c1ccccn1)c1ccccn1 as the molecule, how does the T/C (dose: 37.5 mg/kg/injection, schedule: Q01DX009 (ip), vehicle: saline with Tween-80) read?
Its T/C is 94 % of control.

What about the T/C (dose: 75.0 mg/kg/injection, schedule: Q01DX009 (ip), vehicle: saline with Tween-80) of the same molecule?
The T/C was 114 % of control.

What about the T/C (dose: 150.0 mg/kg/injection, schedule: Q01DX009 (ip), vehicle: saline with Tween-80) of the same molecule?
The T/C was 113 % of control.

How did the T/C [6] turn out when CC1(C)CC(=N/O)/C(=N/O)C(=N\NC(N)=S)/C1 was run?
Its T/C is 97 % of control.

What about the T/C [7] of the same molecule?
The T/C was 94 % of control.

And the T/C [8]?
The T/C was 97 % of control.

For CN(CCC(C#N)c1ccccc1)Cc1ccccc1 (stereo unspecified), which T/C [1] is on record?
The T/C was 92 % of control.

What about the T/C [2] of the same molecule?
The T/C was 101 % of control.

Source: PubChem BioAssay AID330 (DTP/NCI, 2004)
